# Values of other authors as cited in patent US6924311B2, “Methods for affecting various diseases utilizing LXR compounds” (X-Ceptor Therapeutics, Inc., priority 2001, dated 2005).
# Settings: db/db mice, known anti-diabetic RXR agonist, positive control; cited from earlier work
smiles,measurement,value
"CC1(C)CCC(C)(C)c2cc(C3(c4ccc(C(=O)O)cn4)CC3)c(F)cc21 [Compound 2, 6-[1-(3-Fluoro-5,5,8,8-tetramethyl-5,6,7,8-tetrahydro-napthalen-2-yl)-cyclopropyl]-nicotinic acid]",effect on blood glucose levels,effectively lower blood glucose levels in db/db mice
